# From paper PMC3127977, “No relevant cardiac, pharmacokinetic or safety interactions between roflumilast and inhaled formoterol in healthy subjects: an open-label, randomised, actively controlled study” (BMC Clinical Pharmacology, 2011)
# Key:
# [1] = Steady-state plasma pharmacokinetics (HPLC-MS/MS) in healthy men; oral roflumilast 500 μg once daily, inhaled formoterol 24 μg twice daily; settings: for Cmax: Cmax (formoterol)
# Procedure: (§1) For Regimen A, subjects received 500 μg oral roflumilast once daily (daily dose: one tablet of roflumilast 500 μg) from the morning of Day 2 to the morning of Day 18. […] For Regimen B, subjects received 24 μg formoterol for oral inhalation delivered by a DPI device (Foradil® P) twice daily, once in the morning and once in the evening from the morning of Day 2 to the evening of Day 18.
# Pre-dose blood samples for determination of trough levels were taken on Days 9 and 10 for Regimen A (morning only), and on Days 6 and 7 (morning and evening) for Regimen B. Blood samples (4.5 mL) were collected in heparinised tubes and plasma was obtained by centrifugation at 1550 g for 15 minutes. Plasma samples were stored at -20°C or below for roflumilast, and at -70°C for formoterol. Plasma concentrations of roflumilast and roflumilast N-oxide were determined using high-performance liquid chromatography coupled with tandem mass spectrometry (HPLC-MS/MS). […] Roflumilast and roflumilast N-oxide standard curves were valid up to 20 ng/mL and 40 ng/mL, respectively. Determination of roflumilast and roflumilast N-oxide was performed at Altana Pharma AG, Konstanz, Germany (Nycomed GmbH). Plasma concentrations of formoterol were determined using HPLC-MS/MS. The LLOQ in plasma was 0.4 pg/mL using a sample volume of 1.0 mL. […] Determination of formoterol was performed at pharm-analyt Labor GmbH, Baden, Austria, under the supervision of Altana Pharma AG(Nycomed GmbH).
# For roflumilast, roflumilast N-oxide and formoterol, the maximum plasma concentration (Cmax) was derived directly from the plasma concentrations. The AUC from time zero to the time of the last quantifiable concentration, which corresponded to the dosing interval of each analyte (AUC0-τ), was estimated using the linear trapezoidal method. Apparent clearance at steady state (CL/F; calculated by dose/AUCτ) was reported for roflumilast only. […] The calculation of tPDE4i was based on the equation described in Lahu et al..
# healthy subjects [2] = experiment: Transthoracic impedance cardiography (ZCG) and systolic time intervals in healthy men; oral roflumilast 500 μg once daily, inhaled formoterol 24 μg twice daily; settings: Regimen B
# Procedure: as §1
# Cardiovascular effects were evaluated non-invasively by means of ECGs (cardiac rhythm, intra-cardiac conduction and ventricular repolarisation), oscillometric blood pressure and transthoracic impedance cardiography (ZCG; systolic time intervals, contractility indices and estimates of stroke volume and cardiac output). Cardiovascular assessments (oscillometric blood pressure, pulse rate, 12-lead ECG, and three-lead ZCG) were recorded before dosing and at 10, 20, 40 and 60 minutes, and at 2, 3, 4, 5, 6, 7 and 8 hours after morning dosing. […] All cardiovascular measurements were carried out after the subjects had been recumbent for at least 10 minutes; they generally stayed in bed from 1 hour before until 8 hours after morning dosing.
# Systolic time intervals (STIs) and ZCG estimates of the systolic cardiac pump performance were derived from the simultaneous registration of a one-lead ECG, a phonocardiogram (PCG), and the rate of change of the transthoracic impedance (dZ/dt) to an AC current applied through the thoracic cage (CARDIODYNAGRAPH; Diefenbach GmbH, Wiesbaden, Germany). Tracings were captured and stored digitally during the study and subsequently analysed after the study by displaying the analogue ECG, PCG and ZCG signals on a computer screen. The relevant signal amplitudes and time intervals were delineated manually by operator-steered cursors; measurements were made for at least 10 artefact-free consecutive cardiac cycles. From these tracings, the following variables were derived by direct measurement: RR interval (ms), total electromechanic systole (QS2 [ms]), ventricular ejection time (VET [ms]), baseline transthoracic impedance (Z0 [Ω]), and maximum negative velocity of transthoracic impedance changes during the cardiac cycle (dZ/dtmax [Ω/s]). These variables were analysed for the 10 cycles and their means were used in the calculations of the following variables: heart rate (HR [bpm]), pre-ejection period (PEP [ms] = QS2 - VET), HR-corrected STIs (STIc and STIi according to Weissler et al.), ZCG estimates of stroke volume (SV [mL] according to Kubicek's equation [37] using the equation of Geddes and Sadler for the specific resistance of blood), cardiac output (CO [mL/min]), and total peripheral resistance (TPR [dyn.s.cm^-5]). For the latter variable, the mean blood pressure (MBP [mmHg]) was used as calculated according to Wezler and Böger from the systolic blood pressure (mmHg) and the diastolic blood pressure (mmHg).
# ZCG analysis was carried out by a single analyst who was blinded with regard to subject, study regimen, profiling day within regimen, and time during the day.
# healthy subjects [3] = experiment: Digital 12-lead electrocardiography (HR, QT, QTc); assay type: in vivo, human
# Procedure: Digital 12-lead ECGs were recorded immediately after each ZCG recording. Tracings were analysed off-study by regimen-blinded qualified analysts, using previously reported methodology. For each time point, three cycles were measured with regard to the RR, PQ and QT-intervals [ms]. The means of the three measurements were used for the calculation of HR and HR-corrected QTc intervals, according to Bazett's equation (QTcB = QT/RR^1/2) and Fridericia's equation (QTcF = QT/RR^1/3).
# healthy subjects [4] = experiment: Adverse event monitoring; assay type: in vivo, human
# Excerpt: Blood and urine samples for conventional clinical laboratory safety tests were obtained at the screening visit, in the morning of each main profiling day, and on Day 19. Adverse events (AEs) were monitored throughout the study.
# [5] = orally co-administered formoterol, Phase I study; ref unpublished data; Nycomed GmbH, 2002; cited from earlier work
# [6] = system: human parenchymal and bronchial explants; settings: in vitro; cited from earlier work
# [7] = Serum glucose concentration on profiling days; settings: Regimen B, throughout Day 8 compared with Day 1
# Excerpt: (§2) During the main profiling days, blood was sampled at each ZCG time point for the determination of serum glucose and potassium concentrations.
# [8] = Serum potassium concentration on profiling days; settings: Regimen B, Day 8
# Excerpt: as §2
structure (smiles),measurement,setting,value
COc1ccc(CC(C)NCC(O)c2ccc(O)c(NC=O)c2)cc1 (stereo not drawn) [Formoterol],changes in steady-state pharmacokinetics when the other drug was added,"[1]; formoterol added to roflumilast, or roflumilast added to formoterol",no changes
same,Cmax,"[1]; male, human, in vivo, 24 μg, steady state, Regimen B Day 8 (formoterol alone), geometric mean (68% range)",16.7 ng/mL
same,AUC,"[1]; male, human, in vivo, AUCτ (formoterol), steady state, Regimen A Day 18 (roflumilast plus formoterol), geometric mean (68% range)",93.2 ng·h/mL
same,Cmax,"[1]; male, human, in vivo, steady state, Regimen A Day 18 (roflumilast plus formoterol), geometric mean (68% range)",18.7 ng/mL
same,Cmax,"[1]; male, human, in vivo, steady state, Regimen B Day 18 (formoterol plus roflumilast), geometric mean (68% range)",17.2 ng/mL
same,Ctrough (formoterol),"[1]; steady state, Regimen A Day 18 (roflumilast plus formoterol), geometric mean (68% range)",4.23 (2.43-7.38) μg/L
same,Ctrough (formoterol),"[1]; steady state, Regimen B Day 8 (formoterol alone), geometric mean (68% range)",4.12 (3.05-5.57) μg/L
same,Ctrough (formoterol),"[1]; steady state, Regimen B Day 18 (formoterol plus roflumilast), geometric mean (68% range)",3.94 (3.13-4.96) μg/L
same,"CO, Day 1-matched post-dose maximum dmax (δ), median",healthy subjects [2]; Day 8 (F),2.9 L/min
same,"CO, Day 1-matched post-dose minimum dmin (δ), median",healthy subjects [2]; Day 8 (F),-0.6 L/min
same,"CO, untransformed post-dose maximum dmax (U), median",healthy subjects [2]; Day 8 (F),11.8 L/min
same,"CO, untransformed post-dose minimum dmin (U), median",healthy subjects [2]; Day 8 (F),8.2 L/min
same,"CO, untransformed pre-dose morning value, median",healthy subjects [2]; Day 8 (F),9.7 L/min
same,"HR, Day 1-matched post-dose maximum dmax (δ), median",healthy subjects [2]; Day 8 (F),16 bpm
same,"HR, Day 1-matched post-dose minimum dmin (δ), median",healthy subjects [2]; Day 8 (F),-2 bpm
same,"HR, untransformed post-dose maximum dmax (U), median",healthy subjects [2]; Day 8 (F),72 bpm
same,"HR, untransformed post-dose minimum dmin (U), median",healthy subjects [2]; Day 8 (F),62 bpm
same,"HR, untransformed pre-dose morning value, median",healthy subjects [2]; Day 8 (F),66 bpm
same,"PEP, Day 1-matched post-dose maximum dmax (δ), median",healthy subjects [2]; Day 8 (F),25 ms
same,"PEP, Day 1-matched post-dose minimum dmin (δ), median",healthy subjects [2]; Day 8 (F),-26 ms
same,"PEP, untransformed post-dose maximum dmax (U), median",healthy subjects [2]; Day 8 (F),117 ms
same,"PEP, untransformed post-dose minimum dmin (U), median",healthy subjects [2]; Day 8 (F),84 ms
same,"PEP, untransformed pre-dose morning value, median",healthy subjects [2]; Day 8 (F),97 ms
same,"QS2, Day 1-matched post-dose maximum dmax (δ), median",healthy subjects [2]; Day 8 (F),13 ms
same,"QS2, Day 1-matched post-dose minimum dmin (δ), median",healthy subjects [2]; Day 8 (F),-47 ms
same,"QS2, untransformed post-dose maximum dmax (U), median",healthy subjects [2]; Day 8 (F),440 ms
same,"QS2, untransformed post-dose minimum dmin (U), median",healthy subjects [2]; Day 8 (F),408 ms
same,"QS2, untransformed pre-dose morning value, median",healthy subjects [2]; Day 8 (F),431 ms
same,"TPR, Day 1-matched post-dose maximum dmax (δ), median",healthy subjects [2]; Day 8 (F),61 dyn.s.cm^-5
same,"TPR, Day 1-matched post-dose minimum dmin (δ), median",healthy subjects [2]; Day 8 (F),-221 dyn.s.cm^-5
same,"TPR, untransformed post-dose maximum dmax (U), median",healthy subjects [2]; Day 8 (F),882 dyn.s.cm^-5
same,"TPR, untransformed post-dose minimum dmin (U), median",healthy subjects [2]; Day 8 (F),561 dyn.s.cm^-5
same,"TPR, untransformed pre-dose morning value, median",healthy subjects [2]; Day 8 (F),668 dyn.s.cm^-5
same,"dZ/dt, Day 1-matched post-dose maximum dmax (δ), median",healthy subjects [2]; Day 8 (F),0.32 Ω/s
same,"dZ/dt, Day 1-matched post-dose minimum dmin (δ), median",healthy subjects [2]; Day 8 (F),-0.29 Ω/s
same,"dZ/dt, untransformed post-dose maximum dmax (U), median",healthy subjects [2]; Day 8 (F),2.10 Ω/s
same,"dZ/dt, untransformed post-dose minimum dmin (U), median",healthy subjects [2]; Day 8 (F),1.64 Ω/s
same,"dZ/dt, untransformed pre-dose morning value, median",healthy subjects [2]; Day 8 (F),1.94 Ω/s
same,"CO, dmax (U), point estimate (95% CI) of difference between days",healthy subjects [2]; Day 8-Day 1,1.7 (0.6 to 2.6) L/min
same,"CO, dmin (U), point estimate (95% CI) of difference between days",healthy subjects [2]; Day 8-Day 1,0.5 (-0.5 to 1.4) L/min
same,"CO, untransformed pre-dose morning value, point estimate (95% CI) of difference between days",healthy subjects [2]; Day 8-Day 1,0.7 (-0.9 to 2.0) L/min
same,"HR, dmax (U), point estimate (95% CI) of difference between days",healthy subjects [2]; Day 8-Day 1,9 (5 to 11) bpm
same,"HR, dmin (U), point estimate (95% CI) of difference between days",healthy subjects [2]; Day 8-Day 1,7 (3 to 10) bpm
same,"HR, untransformed pre-dose morning value, point estimate (95% CI) of difference between days",healthy subjects [2]; Day 8-Day 1,5 (2 to 9) bpm
same,"PEP, dmax (U), point estimate (95% CI) of difference between days",healthy subjects [2]; Day 8-Day 1,-4 (-14 to 2) ms
same,"PEP, dmin (U), point estimate (95% CI) of difference between days",healthy subjects [2]; Day 8-Day 1,0 (-7 to 6) ms
same,"PEP, untransformed pre-dose morning value, point estimate (95% CI) of difference between days",healthy subjects [2]; Day 8-Day 1,-7 (-22 to 7) ms
same,"QS2, dmax (U), point estimate (95% CI) of difference between days",healthy subjects [2]; Day 8-Day 1,-14 (-27 to 4) ms
same,"QS2, dmin (U), point estimate (95% CI) of difference between days",healthy subjects [2]; Day 8-Day 1,-13 (-22 to -3) ms
same,"QS2, untransformed pre-dose morning value, point estimate (95% CI) of difference between days",healthy subjects [2]; Day 8-Day 1,-4 (-18 to 9) ms
same,"TPR, dmax (U), point estimate (95% CI) of difference between days",healthy subjects [2]; Day 8-Day 1,-49 (-160 to 80) dyn.s.cm^-5
same,"TPR, dmin (U), point estimate (95% CI) of difference between days",healthy subjects [2]; Day 8-Day 1,-96 (-188 to -24) dyn.s.cm^-5
same,"TPR, untransformed pre-dose morning value, point estimate (95% CI) of difference between days",healthy subjects [2]; Day 8-Day 1,-18 (-198 to 70) dyn.s.cm^-5
same,"dZ/dt, dmax (U), point estimate (95% CI) of difference between days",healthy subjects [2]; Day 8-Day 1,0.01 (-0.15 to 0.21) Ω/s
same,"dZ/dt, dmin (U), point estimate (95% CI) of difference between days",healthy subjects [2]; Day 8-Day 1,0.03 (-0.13 to 0.17) Ω/s
same,"dZ/dt, untransformed pre-dose morning value, point estimate (95% CI) of difference between days",healthy subjects [2]; Day 8-Day 1,0.06 (-0.07 to 0.19) Ω/s
same,HR (ECG),healthy subjects [3]; 12-lead ECG,slight increase
same,"QTc values, uncorrected or corrected using Bazett's or Fridericia's formula",healthy subjects [3]; 12-lead ECG,no clinically relevant changes
same,duration of the QT interval,healthy subjects [3]; 12-lead ECG,decrease
same,QT/QTc intervals,"healthy subjects [3]; all subjects, all regimens",below 450 ms
same,number of AEs,"healthy subjects [4]; Regimen B, Day 2 to Day 8",no AEs were reported
same,tremor,healthy subjects [4]; administered alone (Regimens A and B respectively),not observed
same,drug-drug interaction with roflumilast,[5],no apparent drug-drug interaction
same,inhibitory effect of roflumilast on cytokine and tumour necrosis factor-α production,[6],increased
same,post-dose serum glucose,[7],slight post-dose increase
same,pre-dose serum potassium concentration,[8],4.38 mmol/L
